In patent US20040092575A1, “Use of certain substituted pyrrolidones such as piracetam in the treatment of viral and other diseases” (priority 2001, published 2004):

Legend:
viral tilted peptide = test: fusion process induced on LUV by the viral tilted peptide (analogues); conditions: at the doses tested
From the text: The same in vitro study as in Example 1 was used to investigate two analogues (levetiracetam and (R)-(−)-alpha-ethyl-2-oxo-1-pyrrolidine acetamide) in comparison with piracetam.

hepatitis C virus (HCV) = test: Effect of piracetam on patients exhibiting chronic C virus hepatitis; assay type: in vivo
From the text: 6 patients with chronic transfusion associated hepatitis C virus (HCV) received 6 months therapy with piracetam at a daily dose of 10.8 g (3×3.6 g/d) with no other treatment associated. This was followed by a 3 months period of no treatment. All patients, interferon non-responders, had chronic hepatitis from 6 to 19 years. The main criterion of efficacy was serum viral load (HCV-RNA) performed by polymerase chain reaction (PCR) at 0, 3, 6 and 9 months. These patients had manifested a gradual rise in their HCV-RNA. Thus, the criteria for no response was defined as no change in the increase of HCV-RNA, a positive response as a status quo of serum HVC-RNA and a significant response as a decrease of at least half a log of HCV-RNA.

[1] = test system: SUP-Ti cells presenting CD4 receptors; test: formation of syncitia by fusion of infected cells with uninfected neighbouring cells, SUP-Ti cells; assay type: cell-based, HIV; conditions: CD4 receptor present, accordingly to the doses used
From the text: (§1) HV has the property on cultured cells to provoke the formation of syncitia by fusion of infected cells with uninfected neighboring cells, when the virus ends its replication.
(§2) Virus have become remarkably opportunistic in exploring whatever complicated shapes they may find on the host cell surface as binding receptors (e.g. CD4, CXCR4, CCR5, CKR-5, CKR-3).
(§3) This study therefore investigated the ability of piracetam to inhibit the formation of syncitia, […], the primary binding receptor of HIV. For this purpose, two cultures of cells were used, A-201 cells devoid of CD4 receptors and SUP-Ti cells presenting CD4 receptors.

[2] = molecular target: T1, Alzheimer's β-amyloid tilted peptide 29-42 (Homo sapiens, UniProt P05067); test: fusion process induced by Alzheimer's β-amyloid tilted peptide 29-42 on membrane models; conditions: amyloid peptide 29-42
T1 construct: two Alzheimer's β-amyloid tilted peptides (29-40 and 29-42) on membrane models
Protocol: (§4) Four fundamental studies using different tools such as conformational analysis, biophysical methods, NMR and two-hybrid assay were carried out.

[3] = molecular target: T2, Alzheimer's β-amyloid tilted peptide 29-40 (Homo sapiens, UniProt P05067); test: fusion process induced by Alzheimer's β-amyloid tilted peptide 29-40 on membrane models; conditions: amyloid peptide 29-40
T2 construct: two Alzheimer's β-amyloid tilted peptides (29-40 and 29-42) on membrane models
Protocol: as §4

[4] = molecular target: titled peptide of SIV-wt (12AA) (Simian immunodeficiency virus, UniProt P05885); test: fusion of large unilamellar vesicles (LUV) provoked by tilted peptide of SIV-wt; conditions: at the doses tested
acute viral hepatitis = test: Effect of piracetam on patients exhibiting acute viral hepatitis; assay type: in vivo
Protocol: 110 patients with acute hepatitis, hospitalised from the first or the second week of icterus, were included in the study. All patients were assigned to rest, and received diet and vitamins.
A first group received piracetam at a daily dose of 2.4 g (3×0.8 g/day), a second group received no piracetam and acted as control group. The main parameters were serum bilirubine and transaminases, measured once a week during the whole icterus period.
Inclusion criteria were bilirubine ([…]) (N<0.3) and transaminases (>400 U) (N<40).
The criteria for a positive response were bilirubine <1.5 mg/dl and transaminases <100 U.

[5] = test system: A-201 cells devoid of CD4 receptors; test: formation of syncitia by fusion of infected cells with uninfected neighbouring cells, A-201 cells; assay type: cell-based, HIV; conditions: no CD4 receptor, accordingly to the doses used
From the text: as §1, §2, §3

[6] = molecular target: T3, titled peptide of HUV-wt (wild type)(16 AA) (Human immunodeficiency virus type 1 group M subtype B, UniProt P04578); test: fusion of large unilamellar vesicles (LUV) provoked by tilted peptide of HUV-wt; parameters: species or system HIV; conditions: at the doses tested
T3 construct: titled peptide of HUV-wt (wild type)(16 AA)

[7] = test system: herpes simplex virus 1 (HSV1); conditions: Vero cells culture, in vitro; cited from earlier work
[8] = piracetam introduced after incubation of peptide with liposomes, whatever the dose
[9] = preincubation of piracetam before addition of the peptide
[10] = patients receiving piracetam from the first week of icterus

CC[C@H](C(N)=O)N1CCCC1=O [(R)-(−) alpha-ethyl-2-oxo-1-pyrrolidineacetamide]
inhibitory effect on the fusion process induced on LUV (viral tilted peptide): very clear inhibitory effect

CC[C@@H](C(N)=O)N1CCCC1=O [levetiracetam, (S)-α-ethyl-2-oxo-1-pyrrolidineacetamide]
inhibitory effect on the fusion process induced on LUV (viral tilted peptide): very clear inhibitory effect

NC(=O)CN1CCCC1=O [piracetam, 2-oxo-pyrrolidineacetamide]
Clinical tolerance (hepatitis C virus (HCV); chronic HCV patients, 10.8 g daily (3×3.6 g/d), 6 months): excellent | change of serum HCV-RNA (hepatitis C virus (HCV); four of 6 patients, PCR, 10.8 g daily): decrease | decrease of serum HCV-RNA (hepatitis C virus (HCV); the patient most recently infected (6 years), significant): < 0.6 log | increase of serum HCV-RNA (hepatitis C virus (HCV); two of 6 patients, PCR, 10.8 g daily): < 10% | inhibition of the formation of syncitia [1]: inhibited | inhibition of the fusion process on membrane models ([2]; four studies overall): inhibit the fusion process | inhibition of the fusion process [2, 8]: not able to inhibit | inhibition of the fusion process [2, 9]: inhibits almost completely | inhibition of the fusion process on membrane models ([3]; four studies overall): inhibit the fusion process | inhibition of the fusion process [3, 8]: not able to inhibit | inhibition of the fusion process [3, 9]: inhibits almost completely | inhibition of the fusion of LUV [4]: inhibits the fusion of LUV | Clinical tolerance (acute viral hepatitis; acute hepatitis patients, 2.4 g daily (3×0.8 g/day)): excellent | reduction of the icterus phase (acute viral hepatitis; compared to the control group, except for 6 patients out of 49): 50% | evolution in serum bilirubine levels (acute viral hepatitis; [10]): positive evolution was especially observed | evolution in serum transaminases (acute viral hepatitis; [10]): more pronounced | bilirubine levels (acute viral hepatitis; patients receiving piracetam from the second week of icterus): not significantly reduced | evolution in serum transaminases (acute viral hepatitis; patients receiving piracetam, 2.4 g daily): favourable, although non-significant | evolution in serum bilirubine levels (acute viral hepatitis; piracetam group vs control group, 2.4 g daily, p<0.0003): very highly significantly reduced | inhibition of the formation of syncitia [5]: inhibited | inhibition of the fusion of LUV [6]: inhibits the fusion of LUV | ability to stop the replication of HSV1 [7]: stop the replication
